Assay results reported in US11643428B2, “Therapeutic drug for neurodegenerative disease and application thereof” (SHANGHAI PHARMACEUTICALS HOLDING CO., LTD., priority 2018, dated 2023).

Tests used:
[1] = test system: neuroblastoma cells SK-N-SH; experiment: Total Aβ in supernatant of SK-N-SH cells by ELISA; type: cell-based; details: 24 hours
Protocol: Culture of neuroblastoma cells SK-N-SH and Aβ detection: SK-N-SH cells were cultured in DMEM, plated to 24 well plates and cultured for 24 hours, then PL201 (0, 30, 100, and 300 μM) was added. After co-incubation for 24 hours, the protein level of total Aβ in supernatant was detected by ELISA.
Culture of neuroblastoma cells SK-N-SH and Aβ detection: SK-N-SH cells were cultured in DMEM, plated to 24 well plates and cultured for 24 hours, then PL202 (0, 30, and 100 μM) was added. After co-incubation for 24 hours, protein level of total Aβ in supernatant was detected by ELISA.
Culture of neuroblastoma cells SK-N-SH and Aβ detection: SK-N-SH cells were cultured in DMEM, plated to 24 well plates and cultured for 24 hours, then PL171 (300 μM) was added. After co-incubation for 24 hours, protein level of total Aβ in supernatant was detected by ELISA.
Culture of neuroblastoma cells SK-N-SH and Aβ detection: SK-N-SH cells were cultured in DMEM, plated to 24 well plates and cultured for 24 hours, then PL172 (300 μM) was added. After co-incubation for 24 hours, protein level of total Aβ in supernatant was detected by ELISA.

mouse BV-2 cell line = experiment: Expression of inflammatory factors in LPS-treated BV-2 cells by QPCR; type: cell-based; details: PL202 30, 100, 300 μM, LPS 300 ng/ml, 24 hours
Protocol: Neuroinflammation in the brain of AD is one of the causes of cognitive decline. Microglial cells are the key cells that mediate neuroinflammation. In this example, the inventors have explored whether PL201 has the effect of inhibiting neuroinflammation by detecting the expressions of inflammatory factors on mouse BV-2 cell line.
BV-2 cells were cultured in DMEM, plated to 24 well plates and cultured for 24 hours, then PL201 (0, 10, 30, and 100 μM) and LPS (300 ng/ml) were added. After co-incubation for 24 hours, Trizol was used to extract RNA and the expressions of related inflammatory factors were detected by QPCR.
Mouse BV-2 cells were cultured in DMEM, plated to 24 well plates and cultured for 24 hours, then PL202 (0, 30, 100, and 300 μM) and LPS (300 ng/ml) were added. After co-incubation for 24 hours, Trizol was used to extract RNA and the expressions of related inflammatory factors were detected by QPCR.

SMILES	Aβ production (total Aβ in supernatant) ([1]; 300 μM)	expression of inflammatory factor IL-1β (mouse BV-2 cell line)	expression of inflammatory factor iNOS (mouse BV-2 cell line)	Aβ production (total Aβ in supernatant) ([1]; 30, 100 μM)
COc1cc(/C=C/C(=O)NC2OC(C)C(O)C(O)C2O)ccc1O [PL171, (1-amino-β-L-rhamnopyranosyl) ferulamide]	significantly inhibited			
COc1cc(/C=C/C(=O)NC2OC(C)C(O)C(O)C2O)ccc1O [PL172, (1-amino-α-L-rhamnopyranosyl) ferulamide]	significantly inhibited			
COc1cc(/C=C/C(=O)OC2OC(C)C(O)C(O)C2O)ccc1O [PL202, (β-L-rhamnopyranosyl) ferulic acid ester]		significantly inhibited	significantly inhibited	significantly inhibited
